This is an account of results in PubChem BioAssay AID1259407 (Chemical Carcinogenesis Research Information System (CCRIS), 2018).

The source made the active and inactive calls. How the calls were made is not given here.

For the data set, the system named is CCRIS mutagenicity, Ames/micronucleus/aberration tests. The data set can be described thus: CCRIS mutagenicity studies. Particulars: Test System: AMES SALMONELLA TYPHIMURIUM
[1] abbreviates: Strain/Indicator: TA98, Metabolic Activation: NONE, Method: PREINCUBATION
Where [2] appears, read: Strain/Indicator: TA98, Metabolic Activation: NONE, Method: STANDARD PLATE.
The mark [3] stands for this setting: Strain/Indicator: TA100, Metabolic Activation: NONE, Method: STANDARD PLATE.

In the case of `FC(F)(F)c1ccccc1Cl`, the mutagenic call was “inactive; negative” (Strain/Indicator: TA97, Metabolic Activation: HAMSTER, LIVER, S-9, AROCLOR 1254 (10%), Method: PREINCUBATION); “inactive; negative” (Strain/Indicator: TA97, Metabolic Activation: HAMSTER, LIVER, S-9, AROCLOR 1254 (30%), Method: PREINCUBATION); “inactive; negative” (Strain/Indicator: TA97, Metabolic Activation: NONE, Method: PREINCUBATION); “inactive; negative” (Strain/Indicator: TA97, Metabolic Activation: RAT, LIVER, S-9, AROCLOR 1254 (10%), Method: PREINCUBATION); “inactive; negative” (Strain/Indicator: TA97, Metabolic Activation: RAT, LIVER, S-9, AROCLOR 1254 (30%), Method: PREINCUBATION); “inactive; negative” (Strain/Indicator: TA98, Metabolic Activation: HAMSTER, LIVER, S-9, AROCLOR 1254 (10%), Method: PREINCUBATION). The mutagenic call runs as follows: (Strain/Indicator: TA98, Metabolic Activation: HAMSTER, LIVER, S-9, AROCLOR 1254 (30%), Method: PREINCUBATION) “inactive; negative”; under setting [1], “inactive; negative”; under setting [2], “inactive; negative”; (Strain/Indicator: TA98, Metabolic Activation: RAT, LIVER, S-9, AROCLOR 1254 (10%), Method: PREINCUBATION) “inactive; negative”; (Strain/Indicator: TA98, Metabolic Activation: RAT, LIVER, S-9, AROCLOR 1254 (30%), Method: PREINCUBATION) “inactive; negative”; (Strain/Indicator: TA98, Metabolic Activation: RAT, LIVER, S-9, AROCLOR 1254, Method: STANDARD PLATE) “inactive; negative”. In addition, the mutagenic call reads like this: (Strain/Indicator: TA100, Metabolic Activation: HAMSTER, LIVER, S-9, AROCLOR 1254 (10%), Method: PREINCUBATION) “inactive; negative”; (Strain/Indicator: TA100, Metabolic Activation: HAMSTER, LIVER, S-9, AROCLOR 1254 (30%), Method: PREINCUBATION) “inactive; negative”; (Strain/Indicator: TA100, Metabolic Activation: NONE, Method: PREINCUBATION) “inactive; negative”; under setting [3], “inactive; negative”; (Strain/Indicator: TA100, Metabolic Activation: RAT, LIVER, S-9, AROCLOR 1254 (10%), Method: PREINCUBATION) “inactive; negative”; (Strain/Indicator: TA100, Metabolic Activation: RAT, LIVER, S-9, AROCLOR 1254 (30%), Method: PREINCUBATION) “inactive; negative”. Further, the mutagenic call (Strain/Indicator: TA100, Metabolic Activation: RAT, LIVER, S-9, AROCLOR 1254, Method: STANDARD PLATE) is “inactive; negative”; the mutagenic call (Strain/Indicator: TA1535, Metabolic Activation: HAMSTER, LIVER, S-9, AROCLOR 1254 (10%), Method: PREINCUBATION) was “inactive; negative”; the mutagenic call (Strain/Indicator: TA1535, Metabolic Activation: HAMSTER, LIVER, S-9, AROCLOR 1254 (30%), Method: PREINCUBATION) is “inactive; negative”; the mutagenic call (Strain/Indicator: TA1535, Metabolic Activation: NONE, Method: PREINCUBATION) is “inactive; negative”; the mutagenic call (Strain/Indicator: TA1535, Metabolic Activation: NONE, Method: STANDARD PLATE) is “inactive; negative”; the mutagenic call (Strain/Indicator: TA1535, Metabolic Activation: RAT, LIVER, S-9, AROCLOR 1254 (10%), Method: PREINCUBATION) was “inactive; negative”. In addition, the mutagenic call was “inactive; negative” (Strain/Indicator: TA1535, Metabolic Activation: RAT, LIVER, S-9, AROCLOR 1254 (30%), Method: PREINCUBATION); “inactive; negative” (Strain/Indicator: TA1535, Metabolic Activation: RAT, LIVER, S-9, AROCLOR 1254, Method: STANDARD PLATE); “inactive; negative” (Strain/Indicator: TA1537, Metabolic Activation: HAMSTER, LIVER, S-9, AROCLOR 1254 (30%), Method: PREINCUBATION); “inactive; negative” (Strain/Indicator: TA1537, Metabolic Activation: NONE, Method: PREINCUBATION); “inactive; negative” (Strain/Indicator: TA1537, Metabolic Activation: NONE, Method: STANDARD PLATE); “inactive; negative” (Strain/Indicator: TA1537, Metabolic Activation: RAT, LIVER, S-9, AROCLOR 1254 (30%), Method: PREINCUBATION). In addition, the mutagenic call was “inactive; negative” (Strain/Indicator: TA1537, Metabolic Activation: RAT, LIVER, S-9, AROCLOR 1254, Method: STANDARD PLATE); “inactive; negative” (Strain/Indicator: TA1538, Metabolic Activation: NONE, Method: STANDARD PLATE); “inactive; negative” (Strain/Indicator: TA1538, Metabolic Activation: RAT, LIVER, S-9, AROCLOR 1254, Method: STANDARD PLATE).

On to `O=[N+]([O-])c1ccc2ccc3c([N+](=O)[O-])c4ccccc4c4ccc1c2c34`, for which the mutagenic call (Strain/Indicator: TA98(1,8-DNP6), Metabolic Activation: NONE) is “active; positive”; the mutagenic call (Strain/Indicator: TA98(NR), Metabolic Activation: NONE) was “active; positive”; the mutagenic call (Strain/Indicator: TA98(NR), Metabolic Activation: NONE, Method: PREINCUBATION) was “active; positive”; the mutagenic call (Strain/Indicator: TA98, Metabolic Activation: NONE) was “active; positive”; the mutagenic call under setting [1] was “active; positive”; the mutagenic call under setting [2] was “active; positive”. The mutagenic call under setting [3] was “active; positive”.
